Tests used:
[1] = target: GDP-bound KRAS wild-type protein (Homo sapiens, UniProt P01116); experiment: Binding to KRAS by surface plasmon resonance (SPR), Single Cycle Kinetics; settings: SPR, Single Cycle Kinetics, GDP-bound KRAS wild-type protein; read-out: KRAS KD
[2] = target: GDP-bound NRAS wild-type protein (Homo sapiens, UniProt P01111); experiment: Binding to NRAS by surface plasmon resonance (SPR), Single Cycle Kinetics; settings: SPR, GDP-bound NRAS wild-type protein vs GDP-bound KRAS wild-type protein
[3] = target: GDP-bound HRAS wild-type protein (Homo sapiens, UniProt P01112); experiment: Binding to HRAS by surface plasmon resonance (SPR), Single Cycle Kinetics; settings: SPR, GDP-bound HRAS wild-type protein vs GDP-bound KRAS wild-type protein
GDP-bound HRAS wild-type protein, sequence (P01112 whole entry): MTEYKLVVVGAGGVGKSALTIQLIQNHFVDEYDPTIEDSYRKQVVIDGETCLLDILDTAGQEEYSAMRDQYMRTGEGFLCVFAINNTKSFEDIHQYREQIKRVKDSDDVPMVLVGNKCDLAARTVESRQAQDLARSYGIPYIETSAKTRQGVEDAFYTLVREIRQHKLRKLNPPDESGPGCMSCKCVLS

GDP-bound KRAS wild-type protein, sequence (P01116 whole entry): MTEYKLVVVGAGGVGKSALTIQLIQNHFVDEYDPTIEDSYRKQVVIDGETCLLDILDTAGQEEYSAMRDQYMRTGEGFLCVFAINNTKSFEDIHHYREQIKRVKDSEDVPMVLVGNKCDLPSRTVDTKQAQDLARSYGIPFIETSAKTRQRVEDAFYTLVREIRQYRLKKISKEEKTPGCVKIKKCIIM
GDP-bound NRAS wild-type protein, sequence (P01111 whole entry): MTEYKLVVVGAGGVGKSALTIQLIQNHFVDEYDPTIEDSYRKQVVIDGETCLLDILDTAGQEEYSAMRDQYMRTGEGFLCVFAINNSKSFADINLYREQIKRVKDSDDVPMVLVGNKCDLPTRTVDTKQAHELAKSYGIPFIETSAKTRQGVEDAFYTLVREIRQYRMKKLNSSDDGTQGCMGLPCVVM

SMILES | Kd [1] [pM] | NRAS/KRAS (ratio of KD value for NRAS to KD value for KRAS) [2] | HRAS/KRAS (ratio of KD value for HRAS to KD value for KRAS) [3]
CC[C@H](C)[C@@H]1NC(=O)[C@H](CC(C)C)N(C)C(=O)C[C@@H](C(=O)N2CCOCC2)N(C)C(=O)[C@H](C2CCCC2)N(C)C(=O)C2(CCC2)NC(=O)[C@@H]2[C@@H](OC)CCN2C(=O)[C@H](CCc2cc(F)c(C(F)(F)F)c(F)c2)NC(=O)CN(C)C(=O)[C@H](Cc2ccc(C(F)(F)F)cc2)N2CCCCC[C@@H](C2=O)N(C)C(=O)CN(C)C1=O [PP1067] | 2900 | B (a compound having 3 or more and less than 10 is denoted as B) | B (a compound having 3 or more and less than 10 is denoted as B)
CCO[C@H]1CCN2C(=O)[C@H](CCc3cc(F)c(C(F)(F)F)c(F)c3)NC(=O)CN(C)C(=O)[C@H](Cc3ccc(C(F)(F)F)cc3)N3CCCCC[C@@H](C3=O)N(C)C(=O)CN(C)C(=O)[C@H]([C@@H](C)CC)NC(=O)[C@H](CC(C)C)N(C)C(=O)C[C@@H](C(=O)N3CCOCC3)N(C)C(=O)[C@H](C3CCCC3)N(C)C(=O)C3(CCC3)NC(=O)[C@H]12 [PP1068] | 1100 | A (a compound having 10 or more and less than 20 is denoted as A) | B (a compound having 3 or more and less than 10 is denoted as B)
CCCO[C@H]1CCN2C(=O)[C@H](CCc3cc(F)c(C(F)(F)F)c(F)c3)NC(=O)CN(C)C(=O)[C@H](Cc3ccc(C(F)(F)F)cc3)N3CCCCC[C@@H](C3=O)N(C)C(=O)CN(C)C(=O)[C@H]([C@@H](C)CC)NC(=O)[C@H](CC(C)C)N(C)C(=O)C[C@@H](C(=O)N3CCOCC3)N(C)C(=O)[C@H](C3CCCC3)N(C)C(=O)C3(CCC3)NC(=O)[C@H]12 [PP1069] | 2500 | A (a compound having 10 or more and less than 20 is denoted as A) | B (a compound having 3 or more and less than 10 is denoted as B)
CCCCO[C@H]1CCN2C(=O)[C@H](CCc3cc(F)c(C(F)(F)F)c(F)c3)NC(=O)CN(C)C(=O)[C@H](Cc3ccc(C(F)(F)F)cc3)N3CCCC[C@@H](C3=O)N(C)C(=O)CN(C)C(=O)[C@H]([C@@H](C)CC)NC(=O)[C@H](CC(C)C)N(C)C(=O)C[C@@H](C(=O)N3CCOCC3)N(C)C(=O)[C@H](C3CCCC3)N(C)C(=O)C3(CCC3)NC(=O)[C@H]12 [PP1071] | 100 | B (a compound having 3 or more and less than 10 is denoted as B) | B (a compound having 3 or more and less than 10 is denoted as B)
CC[C@H](C)[C@@H]1NC(=O)[C@H](CC(C)C)N(C)C(=O)C[C@@H](C(=O)N2CCOCC2)N(C)C(=O)[C@H](C2CCCC2)N(C)C(=O)C2(CCC2)NC(=O)[C@@H]2[C@@H](OCC3CC3)CCN2C(=O)[C@H](CCc2cc(F)c(C(F)(F)F)c(F)c2)NC(=O)CN(C)C(=O)[C@H](Cc2ccc(C(F)(F)F)cc2)N2CCCC[C@@H](C2=O)N(C)C(=O)CN(C)C1=O [PP1072] | 63 | B (a compound having 3 or more and less than 10 is denoted as B) | B (a compound having 3 or more and less than 10 is denoted as B)
CC[C@H](C)[C@@H]1NC(=O)[C@H](CC(C)C)N(C)C(=O)C[C@@H](C(=O)N2CCOCC2)N(C)C(=O)[C@H](C2CCCC2)N(C)C(=O)C2(CCC2)NC(=O)[C@@H]2[C@@H](OCC3CCCC3)CCN2C(=O)[C@H](CCc2cc(F)c(C(F)(F)F)c(F)c2)NC(=O)CN(C)C(=O)[C@H](Cc2ccc(C(F)(F)F)cc2)N2CCCC[C@@H](C2=O)N(C)C(=O)CN(C)C1=O [PP1073] | 360 | B (a compound having 3 or more and less than 10 is denoted as B) | B (a compound having 3 or more and less than 10 is denoted as B)
CC[C@H](C)[C@@H]1NC(=O)[C@H](CC(C)C)N(C)C(=O)C[C@@H](C(=O)N2CCOCC2)N(C)C(=O)[C@H](C2CCCC2)N(C)C(=O)C2(CCC2)NC(=O)[C@@H]2[C@@H](OC)CCN2C(=O)[C@H](CCc2cc(F)c(C(F)(F)F)c(F)c2)NC(=O)CN(C)C(=O)[C@H](Cc2ccc(C(F)(F)F)cc2)N2CCCC[C@@H](C2=O)N(C)C(=O)CN(C)C1=O [PP1075] | 66 | B (a compound having 3 or more and less than 10 is denoted as B) | B (a compound having 3 or more and less than 10 is denoted as B)
CCO[C@H]1CCN2C(=O)[C@H](CCc3cc(F)c(C(F)(F)F)c(F)c3)NC(=O)CN(C)C(=O)[C@H](Cc3ccc(C(F)(F)F)cc3)N3CCCC[C@@H](C3=O)N(C)C(=O)CN(C)C(=O)[C@H]([C@@H](C)CC)NC(=O)[C@H](CC(C)C)N(C)C(=O)C[C@@H](C(=O)N3CCOCC3)N(C)C(=O)[C@H](C3CCCC3)N(C)C(=O)C3(CCC3)NC(=O)[C@H]12 [PP1076] | 68 | B (a compound having 3 or more and less than 10 is denoted as B) | B (a compound having 3 or more and less than 10 is denoted as B)
CCCO[C@H]1CCN2C(=O)[C@H](CCc3cc(F)c(C(F)(F)F)c(F)c3)NC(=O)CN(C)C(=O)[C@H](Cc3ccc(C(F)(F)F)cc3)N3CCCC[C@@H](C3=O)N(C)C(=O)CN(C)C(=O)[C@H]([C@@H](C)CC)NC(=O)[C@H](CC(C)C)N(C)C(=O)C[C@@H](C(=O)N3CCOCC3)N(C)C(=O)[C@H](C3CCCC3)N(C)C(=O)C3(CCC3)NC(=O)[C@H]12 [PP1077] | 85 | B (a compound having 3 or more and less than 10 is denoted as B) | B (a compound having 3 or more and less than 10 is denoted as B)
CCO[C@@H]1CCN2C(=O)[C@H](CCc3cc(F)c(C(F)(F)F)c(F)c3)NC(=O)CN(C)C(=O)[C@H](Cc3ccc(C(F)(F)F)cc3)N3CCCC[C@@H](C3=O)N(C)C(=O)CN(C)C(=O)[C@H]([C@@H](C)CC)NC(=O)[C@H](CC(C)C)N(C)C(=O)C[C@@H](C(=O)N3CCOCC3)N(C)C(=O)[C@H](C3CCCC3)N(C)C(=O)C3(CCC3)NC(=O)[C@H]12 [PP1079] | 230 | B (a compound having 3 or more and less than 10 is denoted as B) | B (a compound having 3 or more and less than 10 is denoted as B)
CCCO[C@@H]1CCN2C(=O)[C@H](CCc3cc(F)c(C(F)(F)F)c(F)c3)NC(=O)CN(C)C(=O)[C@H](Cc3ccc(C(F)(F)F)cc3)N3CCCC[C@@H](C3=O)N(C)C(=O)CN(C)C(=O)[C@H]([C@@H](C)CC)NC(=O)[C@H](CC(C)C)N(C)C(=O)C[C@@H](C(=O)N3CCOCC3)N(C)C(=O)[C@H](C3CCCC3)N(C)C(=O)C3(CCC3)NC(=O)[C@H]12 [PP1080] | 240 | B (a compound having 3 or more and less than 10 is denoted as B) | B (a compound having 3 or more and less than 10 is denoted as B)
CC[C@H](C)[C@@H]1NC(=O)[C@H](CC(C)C)N(C)C(=O)C[C@@H](C(=O)N2CCOCC2)N(C)C(=O)[C@H](C2CCCC2)N(C)C(=O)C2(CCC2)NC(=O)[C@@H]2[C@H](OC)CCN2C(=O)[C@H](CCc2cc(F)c(C(F)(F)F)c(F)c2)NC(=O)CN(C)C(=O)[C@H](Cc2ccc(C(F)(F)F)cc2)N2CCCCC[C@@H](C2=O)N(C)C(=O)CN(C)C1=O [PP1085] | 950 | A (a compound having 10 or more and less than 20 is denoted as A) | A (a compound having 10 or more and less than 20 is denoted as A)
CCO[C@@H]1C[C@H]2C(=O)NC3(CCC3)C(=O)N(C)[C@@H](C3CCCCC3)C(=O)N(C)[C@H](C(=O)N(C)C)CC(=O)N(C)[C@@H](CC)C(=O)N[C@@H]([C@@H](C)CC)C(=O)N(C)CC(=O)N(C)[C@H]3C/C=C\CCN(C3=O)[C@@H](Cc3ccc(C(F)(F)F)cc3)C(=O)N(C)CC(=O)N[C@@H](CCc3cc(F)c(C(F)(F)F)c(F)c3)C(=O)N2C1 [PP1086, (2S,8S,12R,14S,20S,23S,27S,30S,36S,38Z)-20-cyclohexyl-8-[2-[3,5-difluoro-4-(trifluoromethyl)phenyl]ethyl]-12-ethoxy-27-ethyl-N,N,4,19,22,26,32,35-octamethyl-30-[(1S)-1-methylpropyl]-3,6,9,15,18,21,25,28,31,34,42-undecaoxo-2-[[4-(trifluoromethyl)phenyl]methyl]spiro[1,4,7,10,16,19,22,26,29,32,35-undecazatricyclo[34.5.1.0^10,14]dotetracont-38-ene-17,1′-cyclobutane]-23-carboxamide] | 130 | AA (a compound having 20 or more is denoted as AA) | A (a compound having 10 or more and less than 20 is denoted as A)
CCO[C@@H]1C[C@H]2C(=O)NC3(CCC3)C(=O)N(C)[C@@H]([C@@H](C)CC)C(=O)N(C)[C@H](C(=O)N(C)C)CC(=O)N(C)[C@@H](CC)C(=O)N[C@@H]([C@@H](C)CC)C(=O)N(C)CC(=O)N(C)[C@H]3C/C=C\CCN(C3=O)[C@@H](Cc3ccc(C(F)(F)F)cc3)C(=O)N(C)CC(=O)N[C@@H](CCc3cc(F)c(C(F)(F)F)c(F)c3)C(=O)N2C1 [PP1087, (2S,8S,12R,14S,20S,23S,27S,30S,36S,38Z)-8-[2-[3,5-difluoro-4-(trifluoromethyl)phenyl]ethyl]-12-ethoxy-27-ethyl-N,N,4,19,22,26,32,35-octamethyl-20,30-bis[(1S)-1-methylpropyl]-3,6,9,15,18,21,25,28,31,34,42-undecaoxo-2-[[4-(trifluoromethyl)phenyl]methyl]spiro[1,4,7,10,16,19,22,26,29,32,35-undecazatricyclo[34.5.1.0^10,14]dotetracont-38-ene-17,1′-cyclobutane]-23-carboxamide] | 95 | A (a compound having 10 or more and less than 20 is denoted as A) | A (a compound having 10 or more and less than 20 is denoted as A)
